Assay results reported in PubChem BioAssay AID179 (DTP/NCI, 2004).
Calls of active or inactive are those of the source.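 The calls were made as follows: active = compounds giving half or more protection of infected cells from virus-caused growth loss, again on retest; inactive = the rest.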

Tested on: CEM cells HIV-1 protection, formazan growth assay
Experiment: NCI AIDS Antiviral Assay
Settings: for IC50: measured here: growth of uninfected CEM cells
Method in brief: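 Protection of CEM cells against HIV-1 was scored from cell growth (soluble formazan) across five concentrations, with parallel uninfected cells. Lack of protection may reflect toxicity.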

## O=[N+]([O-])/C(Cl)=C(\NCCO)C(Cl)=C(Cl)Cl
  EC50: > 200 µM
  IC50: 63.1 µM

## CN(C)c1ccc(C=Nc2ccc(S(N)(=O)=O)cc2)cc1
  EC50: > 200 µM
  IC50: > 200 µM

## S=C(N1CCN(c2ccc(Cl)c(Cl)c2)CC1)N1CCN(c2ccc(Cl)c(Cl)c2)CC1
  EC50: > 200 µM
  IC50: 10 µM

## CCCCS(=N)(=O)CC[C@H](N)C(=O)O (some centres not stated)
  EC50: > 562 µM
  IC50: 214 µM

## CN1CCN(c2c(C(=O)Nc3ccc([N+](=O)[O-])cc3)cc([N+](=O)[O-])cc2[N+](=O)[O-])CC1
  EC50: > 200 µM
  IC50: > 100 µM

## COc1ccc(-c2ccccc2)cc1S
  EC50: > 200 µM
  IC50: > 200 µM

## CCCNC(=O)N(CCC)S(=O)(=O)c1ccc(Cl)cc1
  outcome: inactive

## C/C(CCn1[nH]c(=O)ccc1=O)=N\OCCCc1ccccc1
  EC50: > 417 µM
  IC50: > 417 µM

## NC(=O)C(=CNc1nc(-c2cccc([N+](=O)[O-])c2)cs1)C(N)=O
  EC50: > 200 µM
  IC50: > 100 µM

## O=C(Nc1ccccc1)N(C1=NCC(CI)S1)c1ccc(F)cc1F (configuration not stated)
  EC50: > 200 µM
  IC50: 25.1 µM

## O=C1CC(O)(c2ccccc2)C(c2ccccc2)=C1c1ccccc1 (configuration not stated)
  outcome: inactive

## S=C1N(c2ccc(Cl)cc2)C2=C(N=Nc3ccccc3)C(=Nc3ccccc3S2)N1c1ccccn1
  EC50: > 50.1 µM
  IC50: 10 µM

## Sc1ccc(Nc2c3ccccc3nc3ccccc23)cc1
  EC50: > 200 µM
  IC50: 14.5 µM

## O=C1[C@@H]2CC(O)[C@@H]3C(=O)[C@@H]4CC(O)[C@H]1[C@@H]4[C@H]23 (some centres not stated)
  EC50: > 1120 µM
  IC50: > 1120 µM

## C=C(CCCC(C)OC(=O)NC(C)c1cccc2ccccc12)[Si](C)(C)C (configuration not stated)
  EC50: > 18.6 µM
  IC50: > 18.6 µM

## CC(=O)NS(=O)(=O)c1ccc(-n2sc3ccccc3c2=O)cc1
  EC50: 12.3 µM
  IC50: 30.9 µM

## CCCc1nc(N)nc(C(=O)Nc2cccc(C(F)(F)F)c2)c1CC
  EC50: > 708 µM
  IC50: > 708 µM

## CCN(CC)CCN.[O-][Cl+3]([O-])([O-])[O-].[Pd+2].c1ccc(-c2ccccn2)nc1
  EC50: > 200 µM
  IC50: 32.4 µM

## CNn1c(-c2ccccc2)n[nH]c1=O
  EC50: 110 µM
  IC50: 151 µM

## COC12c3ccccc3-c3ccccc3C1[C@H]1C(=O)OC(=O)[C@H]12 (some centres not stated)
  EC50: > 162 µM
  IC50: > 162 µM

## COC(=O)C1=Nc2c(C)nn(-c3ccccc3)c2N=C(c2ccc([N+](=O)[O-])cc2)C1
  EC50: > 200 µM
  IC50: > 200 µM

## O=C(Nc1ccc(/C=C/c2ccc(NC(=O)c3ccccc3O)cc2S(=O)(=O)O)c(S(=O)(=O)O)c1)c1ccccc1O
  EC50: 115 µM
  IC50: > 200 µM

## C=CC1(c2ccc3ccccc3c2)OCC(CC)(CC)CO1
  EC50: > 200 µM
  IC50: 79.4 µM

## CC1(C)CCc2ccc(OCCC#N)cc2O1
  outcome: inactive

## COc1ccc(SCc2cc(OC)ccc2OC)cc1
  EC50: > 200 µM
  IC50: 3.98 µM

## CC(=O)NCCC1CNc2ccccc21 (configuration not stated)
  EC50: > 200 µM
  IC50: > 200 µM

## COc1cc(Nc2cnc3cc(F)c(F)cc3n2)cc(OC)c1OC
  EC50: > 200 µM
  IC50: > 200 µM

## O=c1[nH]c2cccccc-2c1-c1nc2ccccc2[nH]1
  EC50: > 138 µM
  IC50: > 138 µM

## O=C(O)C1=CCCc2ccc3ccccc3c21
  outcome: inactive

## CC1(c2cccc3ccc(F)cc23)OC(=O)c2ccccc21 (configuration not stated)
  EC50: > 41.7 µM
  IC50: 7.94 µM

## C#CCNC(=O)N(CC#C)N=O
  EC50: > 1100 µM
  IC50: 166 µM

## CC(=O)Oc1ccc2c(-c3ccccc3)c(Oc3ccc(Cl)cc3)c(=O)oc2c1
  EC50: > 200 µM
  IC50: 15.8 µM

## CCOc1ccc(/C=C2\NC(=S)N(/C=C3\C(=O)Oc4ccccc4C3=O)C2=O)cc1
  outcome: inactive

## O=C(Nc1ccc(/C=C\c2ccc([N+](=O)[O-])cc2S(=O)(=O)O)c(S(=O)(=O)O)c1)OCc1ccccc1
  EC50: > 200 µM
  IC50: > 200 µM

## Brc1cc2nn(-c3ccccc3)nc2c2nonc12
  EC50: > 200 µM
  IC50: > 200 µM

## O=C(c1ccco1)N(C(=S)N1CCN(c2ccccc2)CC1)c1ccccc1
  EC50: > 18.2 µM
  IC50: > 18.2 µM
